Patent US20080260716A1, “Method and Composition for High Level Disinfection Employing Quaternary Ammonium Compounds” (priority 2004, published 2008)
Read-outs that look alike come from different tables or passages of the source.

Tests used:
B. subtilis spores = assay: AOAC sporicidal test, kill time; assay type: cell-based; conditions: for B. subtilis (no kill): 48 hrs
[1] = test system: Mycobacterium terrae, B. subtilis, C. sporogens; parameters: key: satisfies the FDA requirement for high level disinfection (“HLD”); fails to do so (“F”)
[2] = Table 3 Prior art, 0.25% QUAT, 25° C.
[3] = Table 6 unnumbered test, 2% QUAT + 0.2% Protease (Savinase 16 L), 25° C. + 1% borax
[4] = test 3.4, 0.25% QUAT, 62° C. + ultrasound
[5] = test 4.1, 2% QUAT, 25° C. + 1% borax
[6] = test 4.2, 5% QUAT, 25° C. + 1% borax
[7] = test 4.3, 1% QUAT, 40° C. + 1% borax
[8] = test 4.4, 2% QUAT, 40° C. + 1% borax
[9] = test 4.5, 5% QUAT, 40° C. + 1% borax
[10] = test 4.6, 2% QUAT, 50° C. + 1% borax
[11] = test 4.7, 5% QUAT, 50° C. + 1% borax
[12] = test 5.2, 2% QUAT, 40° C. + ultrasound 10 min each hour
[13] = test 5.3, 5% QUAT, 40° C. + ultrasound 10 min each hour
[14] = test 5.4, 1% QUAT, 40° C. + ultrasound 10 min each hour
[15] = test 5.5, 2% QUAT + 1% borax, 40° C. + ultrasound 10 min each hour
[16] = test 5.6, 5% QUAT + 1% borax, 40° C. + ultrasound 10 min each hour
[17] = test 5.7, 2% QUAT + 1% borax + Protease, 40° C. + ultrasound 10 min each hour
[18] = test 6.1, 2% QUAT + 0.2% Protease (Savinase 16 L), 25° C.
[19] = test 6.2, 2% QUAT + 0.2% Protease (Savinase 16 L), 40° C.
[20] = test 6.3, 2% QUAT + 0.2% Protease (Savinase 16 L), 40° C. + 1% borax
[21] = test 6.4, 2% QUAT + 0.2% Protease (Savinase 16 L), 50° C.
[22] = test 6.5, 2% QUAT + 0.2% Protease (Savinase 16 L), 50° C. + 1% borax
[23] = test 6.6, 2% QUAT + 0.2% Protease (Savinase 16 L), 40° C. + ultrasound 10 min each hour + 1% borax
[24] = test 6.7, 2% QUAT + 1% borax + Protease, 40° C. + ultrasound 10 min each hour

Substance: benzalkonium chloride [QUAT]
- Kill Time B. subtilis (B. subtilis spores; [2]): >24 h
- Kill Time B. subtilis (B. subtilis spores; [3]): >48 h
- B. subtilis (no kill) (B. subtilis spores; [3]): (no kill) (“No kill” means less than 2 log reduction from the initial population)
- kill time of B. subtilis (B. subtilis spores; above 1% w/w of quat, 40° C.): less than 2 hours
- Kill Time B. subtilis (B. subtilis spores; test 1.1, 0.025% QUAT, 25° C.): >24 h
- Kill Time B. subtilis (B. subtilis spores; test 1.2, 0.25% QUAT, 25° C.): >24 h
- Kill Time B. subtilis (B. subtilis spores; test 2.1, 5% QUAT, 30° C.): <2 h
- Kill Time B. subtilis (B. subtilis spores; test 2.2, 1.0% QUAT, 40° C.): <2 h
- Kill Time B. subtilis (B. subtilis spores; test 2.3, 2.0% QUAT, 40° C.): <2 h
- Kill Time B. subtilis (B. subtilis spores; test 2.4, 5.0% QUAT, 40° C.): <1 h
- Kill Time B. subtilis (B. subtilis spores; test 2.5, 1.0% QUAT, 50° C.): <1 h
- Kill Time B. subtilis (B. subtilis spores; test 2.6, 2.0% QUAT, 50° C.): <1 h
- Kill Time B. subtilis (B. subtilis spores; test 2.7, 5.0% QUAT, 50° C.): <1 h
- Kill Time B. subtilis (B. subtilis spores; test 2.7, 5.0% QUAT, 50° C., listed as quat): less than one hour
- Kill Time B. subtilis (B. subtilis spores; test 2.8, 1.0% QUAT, 80° C.): <1 h
- Kill Time B. subtilis (B. subtilis spores; test 2.8, 1.0% QUAT, 80° C., listed as quat): less than one hour
- Kill Time B. subtilis (B. subtilis spores; test 3.1, 0.25% QUAT, 40° C.): >24 h
- Kill Time B. subtilis (B. subtilis spores; test 3.2, 0.25% QUAT, 50° C.): >24 h
- Kill Time B. subtilis (B. subtilis spores; test 3.3, 0.25% QUAT, 60° C.): >24 h
- Kill Time B. subtilis (B. subtilis spores; [4]): >24 h
- Kill Time B. subtilis (B. subtilis spores; test 3.5, 1.0% QUAT, 25° C.): >48 h
- B. subtilis (no kill) (B. subtilis spores; test 3.5, 1.0% QUAT, 25° C.): (no kill) (“No kill” means less than 2 log reduction from the initial population)
- Kill Time B. subtilis (B. subtilis spores; test 3.6, 2.0% QUAT, 25° C.): >48 h
- B. subtilis (no kill) (B. subtilis spores; test 3.6, 2.0% QUAT, 25° C.): (no kill) (“No kill” means less than 2 log reduction from the initial population)
- Kill Time B. subtilis (B. subtilis spores; test 3.7, 5.0% QUAT, 25° C.): >48 h
- B. subtilis (no kill) (B. subtilis spores; test 3.7, 5.0% QUAT, 25° C.): (no kill) (“No kill” means less than 2 log reduction from the initial population)
- Kill Time B. subtilis (B. subtilis spores; test 3.8, 0.6%, 40° C.): >24 h
- Kill Time B. subtilis (B. subtilis spores; test 3.9, 0.6% QUAT, 50° C.): <16 h
- Kill Time B. subtilis (B. subtilis spores; [5]): >48 h
- B. subtilis (no kill) (B. subtilis spores; [5]): (no kill) (“No kill” means less than 2 log reduction from the initial population)
- Kill Time B. subtilis (B. subtilis spores; [6]): >48 h
- B. subtilis (no kill) (B. subtilis spores; [6]): (no kill) (“No kill” means less than 2 log reduction from the initial population)
- Kill Time B. subtilis (B. subtilis spores; [7]): <1 h
- Kill Time B. subtilis (B. subtilis spores; [8]): <1 h
- Kill Time B. subtilis (B. subtilis spores; [9]): <1 h
- Kill Time B. subtilis (B. subtilis spores; [10]): <1 h
- Kill Time B. subtilis (B. subtilis spores; [11]): <1 h
- Kill Time B. subtilis (B. subtilis spores; test 5.1, 1% QUAT, 40° C. + ultrasound 10 min each hour): <2 h
- Kill Time B. subtilis (B. subtilis spores; [12]): <1 h
- Kill Time B. subtilis (B. subtilis spores; [13]): <1 h
- Kill Time B. subtilis (B. subtilis spores; [14]): <1 h
- Kill Time B. subtilis (B. subtilis spores; [15]): <1 h
- Kill Time B. subtilis (B. subtilis spores; [16]): <1 h
- Kill Time B. subtilis (B. subtilis spores; [17]): <1 h
- Kill Time B. subtilis (B. subtilis spores; [18]): >48 h
- B. subtilis (no kill) (B. subtilis spores; [18]): (no kill) (“No kill” means less than 2 log reduction from the initial population)
- Kill Time B. subtilis (B. subtilis spores; [19]): <2 h
- Kill Time B. subtilis (B. subtilis spores; [20]): <1 h
- Kill Time B. subtilis (B. subtilis spores; [21]): <1 h
- Kill Time B. subtilis (B. subtilis spores; [22]): <1 h
- Kill Time B. subtilis (B. subtilis spores; [23]): <1 h
- Kill Time B. subtilis (B. subtilis spores; [24]): <1 h
- HLD Or F [1, 2]: F
- HLD Or F [1, 3]: F
- HLD or F ([1]; test 1.1, 0.025% QUAT, 25° C.): F
- HLD or F ([1]; test 1.2, 0.25% QUAT, 25° C.): F
- HLD or F ([1]; test 2.1, 5% QUAT, 30° C.): HLD
- HLD or F ([1]; test 2.2, 1.0% QUAT, 40° C.): HLD
- HLD or F ([1]; test 2.3, 2.0% QUAT, 40° C.): HLD
- HLD or F ([1]; test 2.4, 5.0% QUAT, 40° C.): HLD
- HLD or F ([1]; test 2.5, 1.0% QUAT, 50° C.): HLD
- HLD or F ([1]; test 2.6, 2.0% QUAT, 50° C.): HLD
- HLD or F ([1]; test 2.7, 5.0% QUAT, 50° C.): HLD
- HLD or F ([1]; test 2.8, 1.0% QUAT, 80° C.): HLD
- HLD Or F ([1]; test 3.1, 0.25% QUAT, 40° C.): F
- HLD Or F ([1]; test 3.2, 0.25% QUAT, 50° C.): F
- HLD Or F ([1]; test 3.3, 0.25% QUAT, 60° C.): F
- HLD Or F [1, 4]: F
- HLD Or F ([1]; test 3.5, 1.0% QUAT, 25° C.): F
- HLD Or F ([1]; test 3.6, 2.0% QUAT, 25° C.): F
- HLD Or F ([1]; test 3.7, 5.0% QUAT, 25° C.): F
- HLD Or F ([1]; test 3.8, 0.6%, 40° C.): F
- HLD Or F ([1]; test 3.9, 0.6% QUAT, 50° C.): F
- HLD or F [1, 5]: F
- HLD or F [1, 6]: F
- HLD or F [1, 7]: HLD
- HLD or F [1, 8]: HLD
- HLD or F [1, 9]: HLD
- HLD or F [1, 10]: HLD
- HLD or F [1, 11]: HLD
- HLD Or F [1, 12]: HLD
- HLD Or F [1, 13]: HLD
- HLD Or F [1, 14]: HLD
- HLD Or F [1, 15]: HLD
- HLD Or F [1, 16]: HLD
- HLD Or F [1, 17]: HLD
- HLD Or F [1, 18]: F
- HLD Or F [1, 19]: HLD
- HLD Or F [1, 20]: HLD
- HLD Or F [1, 21]: HLD
- HLD Or F [1, 22]: HLD
- HLD Or F [1, 23]: HLD
- HLD Or F [1, 24]: HLD
